“And” between values parts separate entries of the source, which are not always exact repeats. Identical values can stand only once. Inconclusive results and toxic doses are left out.
Test system: B6C3F1 mice, B16 melanoma ip, median survival T/C
Assay: NCI In Vivo Anticancer Drug Screen. Data for tumor model B16 Melanoma (intraperitoneal) in B6C3F1 mice
Conditions: endpoint: median survival time, schedule: Q01DX009 (ip), higher = longer survival
Summary of the method: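 Tumor-bearing mice received test compound; a separate group got vehicle only. Survival was then compared, with results reported as treated over control.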

[1] = dose: 12.5 mg/kg/injection, vehicle: saline with Tween-80
[2] = dose: 25.0 mg/kg/injection, vehicle: saline with Tween-80
[3] = dose: 50.0 mg/kg/injection, vehicle: saline with Tween-80
[4] = dose: 100.0 mg/kg/injection, vehicle: saline with Tween-80
[5] = dose: 200.0 mg/kg/injection, vehicle: saline with Tween-80
[6] = dose: 50.0 mg/kg/injection, vehicle: saline
[7] = dose: 100.0 mg/kg/injection, vehicle: saline
[8] = dose: 200.0 mg/kg/injection, vehicle: saline
[9] = dose: 400.0 mg/kg/injection, vehicle: saline with Tween-80
[10] = dose: 400.0 mg/kg/injection, vehicle: saline
[11] = dose: 25.0 mg/kg/injection, vehicle: saline
[12] = dose: 3.12 mg/kg/injection, vehicle: saline with Tween-80
[13] = dose: 6.25 mg/kg/injection, vehicle: saline with Tween-80
[14] = dose: 25.0 mg/kg/injection, vehicle: Klucel (hydroxypropylcellulose) (HPC)
[15] = dose: 50.0 mg/kg/injection, vehicle: Klucel (hydroxypropylcellulose) (HPC)
[16] = dose: 100.0 mg/kg/injection, vehicle: Klucel (hydroxypropylcellulose) (HPC)
[17] = dose: 6.25 mg/kg/injection, vehicle: saline
[18] = dose: 12.5 mg/kg/injection, vehicle: saline

COc1cc(C(=O)N/N=C/c2cccc([N+](=O)[O-])c2)cc(OC)c1OC
T/C [1]: 88 % of control
T/C [2]: 90 % of control

C=C(C)C12OC3(CCCCCCCCC)OC1C1C4OC4(COC(=O)CCCCCCCCCCCCCCC)C(O)C4(O)C(=O)C(C)=CC4C1(O3)C(C)C2OC(=O)c1ccccc1 (centres undefined)
T/C (dose: 5.0 micrograms/kg/injection, vehicle: saline + alcohol): 96 % of control
T/C (dose: 10.0 micrograms/kg/injection, vehicle: saline + alcohol): 99 % of control
T/C (dose: 20.0 micrograms/kg/injection, vehicle: saline + alcohol): 86 % of control
T/C (dose: 40.0 micrograms/kg/injection, vehicle: saline + alcohol): 88 % of control

CC(=O)c1ccc(C)cc1C
T/C [2]: 105 % of control
T/C [3]: 92 % of control
T/C [4]: 98 % of control

CCCCCCCCCCCCCCCCS(=O)CC(O)COC(=O)c1ccc(C(=O)OCC(O)CS(=O)CCCCCCCCCCCCCCCC)cc1 (centres undefined)
T/C (dose: 12.5 mg/kg/injection, vehicle: saline + alcohol): 100 % of control
T/C (dose: 25.0 mg/kg/injection, vehicle: saline + alcohol): 86 % of control
T/C (dose: 50.0 mg/kg/injection, vehicle: saline + alcohol): 87 % of control

CC(/C=C/c1ccccc1)=Nc1ccccc1
T/C [1]: 99 % of control
T/C [2]: 102 % of control
T/C [3]: 99 % of control
T/C [4]: 115 % of control
T/C [5]: 110 % of control

NC(CS)C(=O)O (centres undefined)
T/C [6]: 93 % of control and 104 % of control
T/C [4]: 107 % of control
T/C [7]: 93 % of control and 103 % of control
T/C [5]: 109 % of control
T/C [8]: 93 % of control
T/C [9]: 107 % of control
T/C [10]: 116 % of control and 92 % of control
T/C (dose: 800.0 mg/kg/injection, vehicle: saline with Tween-80): 100 % of control

CCCCCC[C@@H](O)C/C=C\CCCCCCCC(=O)OCCO
T/C [11]: 101 % of control
T/C [6]: 110 % of control
T/C (dose: 75.0 mg/kg/injection, vehicle: saline): 102 % of control
T/C [7]: 122 % of control
T/C (dose: 150.0 mg/kg/injection, vehicle: saline): 97 % of control
T/C [8]: 101 % of control
T/C (dose: 300.0 mg/kg/injection, vehicle: saline): 100 % of control
T/C [10]: 103 % of control
T/C (dose: 600.0 mg/kg/injection, vehicle: saline): 95 % of control
T/C (dose: 800.0 mg/kg/injection, vehicle: saline): 96 % of control
T/C (dose: 1200.0 mg/kg/injection, vehicle: saline): 96 % of control

ClC1=C(Cl)C2(Cl)C3C(Cl)C(Cl)CC3C1(Cl)C2(Cl)Cl (centres undefined)
T/C (dose: 1.56 mg/kg/injection, vehicle: saline with Tween-80): 106 % of control
T/C [12]: 98 % of control
T/C [13]: 101 % of control
T/C [1]: 97 % of control
T/C (dose: 25.0 mg/kg/injection, vehicle: other): 95 % of control
T/C [2]: 87 % of control
T/C (dose: 50.0 mg/kg/injection, vehicle: other): 106 % of control
T/C (dose: 100.0 mg/kg/injection, vehicle: other): 97 % of control

C[C@H](N)C(=O)N[C@@H]1[C@H]2C(=C(O)C[C@@H](O)[C@@H]2O)C(=O)O[C@@H]1C
T/C [6]: 101 % of control
T/C (dose: 75.0 mg/kg/injection, vehicle: saline with Tween-80): 111 % of control
T/C [7]: 98 % of control
T/C (dose: 150.0 mg/kg/injection, vehicle: saline with Tween-80): 120 % of control
T/C [8]: 111 % of control
T/C (dose: 300.0 mg/kg/injection, vehicle: saline with Tween-80): 117 % of control
T/C [10]: 103 % of control
T/C (dose: 1200.0 mg/kg/injection, vehicle: saline with Tween-80): 113 % of control

C(C#CCN1CCOCC1)#CCN1CCOCC1
T/C (dose: 12.5 mg/kg/injection, vehicle: Klucel (hydroxypropylcellulose) (HPC)): 102 % of control
T/C [1]: 105 % of control
T/C [14]: 110 % of control
T/C [2]: 106 % of control
T/C [15]: 105 % of control
T/C [3]: 106 % of control
T/C [16]: 121 % of control
T/C [4]: 111 % of control
T/C (dose: 200.0 mg/kg/injection, vehicle: Klucel (hydroxypropylcellulose) (HPC)): 107 % of control
T/C [5]: 98 % of control
T/C (dose: 400.0 mg/kg/injection, vehicle: Klucel (hydroxypropylcellulose) (HPC)): 91 % of control
T/C [9]: 86 % of control

Cc1c2ccccc2cc2cccc[n+]12
T/C (dose: 2.5 mg/kg/injection, vehicle: saline): 106 % of control and 107 % of control
T/C (dose: 5.0 mg/kg/injection, vehicle: saline): 101 % of control and 104 % of control
T/C (dose: 10.0 mg/kg/injection, vehicle: saline): 102 % of control and 107 % of control
T/C (dose: 20.0 mg/kg/injection, vehicle: saline): 99 % of control and 101 % of control

Nc1ncn(C2OC(CO)C(O)C2O)c(=O)n1 (centres undefined)
T/C (dose: 0.37 mg/kg/injection, vehicle: saline): 106 % of control
T/C (dose: 0.75 mg/kg/injection, vehicle: saline): 111 % of control
T/C (dose: 1.5 mg/kg/injection, vehicle: saline): 112 % of control
T/C (dose: 6.0 mg/kg/injection, vehicle: saline): 114 % of control
T/C [17]: 105 % of control
T/C (dose: 12.0 mg/kg/injection, vehicle: saline): 112 % of control
T/C [18]: 112 % of control
T/C [11]: 117 % of control and 119 % of control
T/C [6]: 116 % of control and 117 % of control (2×)
T/C [8]: 153 % of control

CCCCNc1nc(N)nc(Nc2ccc(Br)cc2)c1N=O
T/C [15]: 97 % of control
T/C [16]: 92 % of control

[I][Hg][CH2]C1COC([CH2][Hg][I])CO1 (centres undefined)
T/C [12]: 93 % of control
T/C (dose: 3.12 mg/kg/injection, vehicle: saline): 97 % of control
T/C [13]: 109 % of control
T/C [17]: 101 % of control
T/C [1]: 113 % of control
T/C [18]: 87 % of control
T/C [2]: 119 % of control
T/C [11]: 100 % of control
T/C [3]: 106 % of control
T/C [6]: 99 % of control
T/C [7]: 96 % of control

Cc1[nH]ccc2c(C)c3nc4ccccc4c3cc12
T/C [14]: 159 % of control

CS(C)(O)NC(N)=O
T/C (dose: 50.0 mg/kg/injection, vehicle: water): 105 % of control
T/C (dose: 100.0 mg/kg/injection, vehicle: water): 103 % of control
T/C (dose: 200.0 mg/kg/injection, vehicle: water): 100 % of control
T/C (dose: 400.0 mg/kg/injection, vehicle: water): 105 % of control

C=C(OC1C(C)=C2C(C1OC(=O)CCCCCCC)C(C)(OC(C)=O)CC(OC(=O)CCC)C1(O)C2OC(=O)C1(C)O)/C(C)=C/C (centres undefined)
T/C (dose: 0.09 mg/kg/injection, vehicle: Klucel (hydroxypropylcellulose) (HPC)): 99 % of control
T/C (dose: 0.18 mg/kg/injection, vehicle: Klucel (hydroxypropylcellulose) (HPC)): 114 % of control
T/C (dose: 0.37 mg/kg/injection, vehicle: Klucel (hydroxypropylcellulose) (HPC)): 102 % of control
T/C (dose: 0.75 mg/kg/injection, vehicle: Klucel (hydroxypropylcellulose) (HPC)): 114 % of control

OCc1c(CO)c(-c2ccc(Cl)cc2)n2c1CCC2
T/C (dose: 25.0 mg/kg/injection, vehicle: distilled water + Tween-80): 94 % of control
T/C (dose: 50.0 mg/kg/injection, vehicle: distilled water + Tween-80): 107 % of control
T/C (dose: 100.0 mg/kg/injection, vehicle: distilled water + Tween-80): 121 % of control
T/C (dose: 200.0 mg/kg/injection, vehicle: distilled water + Tween-80): 198 % of control

Reference: PubChem BioAssay AID200 (DTP/NCI, 2004)
